In patent publication US4855290A (priority 1985, dated 1989):
Several values for one entry are separate records, joined by “and”; a condition that tells them apart may be missing. Equal values may be shown once. Entries after “also recorded” stand apart in the source; their conditions may differ. Read-outs that look alike come from different tables or passages of the source.

How the values were obtained:
[1] = Acute oral toxicity of AF102B in rats; format: in vivo, rats (Charles River CD strain)
Description: The test material was prepared at various concentrations in saline and was administered at a constant volume-sosage of 5 ml./kg. Dosages were selected according to the availability of the test material. Mortality and signs of reaction to treatment were recorded during a 14-day period. Early decedents and surviving animals were subjected to necropsy on Day 15.

[2] = Acute toxicity in mice, ip; format: in vivo; details: 80 mg./kg.
[3] = format: in vivo, mice; details: for dose level for antinociceptive activity: mouse, in vivo
[4] = target: central muscarinic receptors (M1) (Rattus norvegicus, UniProt P08482); assay: biochemical; format: binding; set-up: IC50^1 :IC50^2: unit not given beside the values
central muscarinic receptors (M1), sequence (P08482 whole entry): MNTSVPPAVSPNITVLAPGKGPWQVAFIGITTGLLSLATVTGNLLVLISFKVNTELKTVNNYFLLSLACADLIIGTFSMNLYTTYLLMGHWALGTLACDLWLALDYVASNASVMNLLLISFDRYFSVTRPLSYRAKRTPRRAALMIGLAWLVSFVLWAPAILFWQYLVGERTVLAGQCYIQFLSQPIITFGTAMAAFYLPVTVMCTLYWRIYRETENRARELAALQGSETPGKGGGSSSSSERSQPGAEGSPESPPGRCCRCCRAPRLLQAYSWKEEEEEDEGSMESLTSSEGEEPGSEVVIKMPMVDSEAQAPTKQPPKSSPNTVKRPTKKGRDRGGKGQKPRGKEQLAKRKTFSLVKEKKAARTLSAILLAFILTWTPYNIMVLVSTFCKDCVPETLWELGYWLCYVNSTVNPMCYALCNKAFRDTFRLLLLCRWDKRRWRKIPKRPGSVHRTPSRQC

[5] = target: central muscarinic receptors (M1 and M2); format: binding, rat
[6] = system: Guinea-pig ileum; assay: Guinea-pig ileum induced contractions
Excerpt: Guinea-pig ileum induced contractions
*This dose is the IC50 for inhibiting acetylcholineinduced
contractions of the ileum.

[7] = set-up: species or system Male Sprague-Dawley rats; details: rat, in vivo
[8] = Morris Swimming Maze in AF64A- and CSF-injected rats; format: in vivo, male Sprague Dawley rats; details: ip
Description: 38 male Sprague Dawley rats (raised by Charles River) 5-6 months old with an average weight of 500 g. were used. The rats were housed in groups of 5 and were given free access to food and water. Testing was carried out in a round white metal tub 1.4 m. diameter and 0.4 m. deep. The tub was filled with water, made opaque by milk powder to the level of 18 cm. A platform of 12 cm. diameter and at a height of 16 cm. was placed in the tub 2 cm. below water level. The platform was covered with gauze to prevent the animal from slipping back into the water after reaching the platform.
Prior to testing, the rat was placed on the platform for 120 secs., placed gently into the water, facing the wall of the pool, at one of four starting locations (north, south, east or west) around the pool's perimeter. Within each block of four trials, each rat was started at each of the four starting locations, with the sequence of starting locations randomly selected. Testing was carried out on 2 consecutive days with each rat submitted daily to eight trials. During trials 1-12 the platform was located in the center of the south-east quadrant and during trials 13-16 the platform was transferred to the center of the north-west quadrant. If in a particular trial the rat found the platform, it was permitted to remain on it for 60 secs. before starting the next trial. […] The latency to find the platform was measured.
For drug testing, rats were injected with AF64A or CSF (3 nmole/2 ul/side) as described in Experiment 2, above. The rats were subjected first to a step-through learning procedure (see Experiment 1, above) and were 3-3.5 months after injection when tested in the water maze. The rats were divided into 4 groups; 18 CSF-injected rats were treated either with physostigmine (0.1 mg./kg. ip) (10 rats) or with saline (8 rats). 20 AF64A-injected rats were divided similarly. The rats were injected with physostigmine immediately before testing on each day.
Forty male Sprague-Dawley rats (obtained from Charles River Breeding Laboratories U.K.), 5-6 months old, weighing 450-580 g. during the experiment served as subjects. Rats were housed in groups of 5 and were given free access to food and water. 2.5-3.5 months before behavioral testing, rats were injected with AF64A (3 nmole/2 ul/side) (20 rats-group 1) or CSF (20 rats-group 2) as described in the surgery procedure.
Each of the injected groups was randomly subdivided into two equal size treatment groups.

[9] = set-up: species or system Sprague Dawley rats; details: rat, in vivo, ip
[10] = Tremor induced by AF102B, mice; format: in vivo; details: ip
Excerpt: (§1) rats; these effects are observed around the toxic doses of the compound

[11] = Tremor induced by AF102B, rats; format: in vivo
Excerpt: as §1

[12] = mice
[13] = rats, ip
[14] = system: Guinea-pig ileum; assay: Guinea-pig ileum induced contractions; details: ileum contraction
[15] = in vivo; details: mouse, po
[16] = in vivo; details: mouse, iv
[17] = in vivo; details: rat, ip
[18] = Hypothermia-inducing activity in rats
[19] = system: Salmonella typhimurium, strains TA-15365, TA-100, TA1538, TA-98 and TA-1537; assay: Mutagenic activity (pour-plate assays)
[20] = mouse, icv; cited from earlier work
[21] = oxotremorine 0.5 mg./kg., ip; cited from earlier work
[22] = oxotremorine 0.5 mg./kg., ip; cited from earlier work; remark: listed apart in the source

C[C@H]1O[C@]2(CS1)CN1CCC2CC1 (relative stereo) [AF102B]
deaths ([1]; oral): deaths occurred at all four dose-levels studied, within three hours 30 minutes after dosing | necropsy observations ([1]; oral): a single case of haemorrhagic contents and occasional congested gastric mucosa was observed; also recorded: Necropsy of surviving animals did not reveal any abnormalities | principal signs of reaction to treatment ([1]; oral): clonic convulsions, tremor, salivation, urogenital staining, diarrhoea and pigmented orbital secretion | recovery and bodyweight of surviving animals ([1]; oral): all clinical signs of reaction to treatment were resolved by twenty four hours after dosing; also recorded: Surviving animals generally made expected bodyweight gains | LD50 at 336 h ([1]; rat, in vivo, po): > 156 mg/kg | death of mice [2]: All mice died | antinociceptive effect at highest non-lethal doses ([3]; mice, 60 mg./kg. p.o. and 40 mg./kg. i.p., vs codeine phosphate and oxotremorine): not fully developed at 60 mg./kg. p.o. and 40 mg./kg. i.p; also recorded: remained obviously weaker than those of codeine phosphate and oxotremorine | dose level for antinociceptive activity ([3]; ip): > 10 mg/kg | dose level for antinociceptive activity ([3]; po): greater than 20 mg./kg. | onset of action following per os administration ([3]; po, analgesia, hypothermia and lethal dose level tests): 10 to 15 min | EC50 [4]: 0.4 µM | IC50 [4]: 0.4 µM | IC50^1 :IC50^2 ([4]; PNZ:QNB displacement ratio): 0.04 | IC50 ([5]; read-out: IC50^2 for displacement of [^3 H]-QNB): 10 µM | EC50 ([5]; summary table, read-out: EC50, [^3 H]--QNB-binding): 10 µM | muscarinic agonist activity (TABLES 1 and 2) ([6]; binding and ileum): potent muscarinic agonist | Type of activity ([6]; guinea-pig ileum): agonist | duration of action [7]: very long beneficial effect; also recorded: long duration of action | retention latency during extinction+latent extinction [7]: No significant differences | reversal of AF64A-induced memory impairments in passive avoidance [7]: could be reversed; also recorded: reverses memory impairments in AF64A-treated rats | Initial latency ([7]; ip): 16.71 ± 4.77 s and 11.86 ± 1.23 s and 19.71 ± 5.39 s | Initial-test latency ([7]; ip): 18.40 ± 3.74 s and 15.30 ± 2.83 s | Retention-test latency ([7]; ip): 330.57 ± 75.55 s and 348.14 s and 551.71 s and 514.10 ± 38.21 s and 447.60 ± 58.09 s | retention latency during extinction ([7]; ip): significantly longer, F(1,36)=31.45, p<0.01; also recorded: significantly improved; also recorded: increased from the first to the fourth trial and then decreased | retention-test differences between doses ([7]; ip): no significant differences were found during the 24 hr. retention-test between the different doses of AF102B | Retention-test latency ([7]; po): 524.55 ± 45.60 s and 600 s | retention of passive avoidance (statistics) ([7]; po): significantly longer [F(1,35)=28.46; p<0.001]; also recorded: significantly improved; also recorded: no significant difference between the AF102B-treated-CSF-injected group and the saline-treated-CSF-injected group; also recorded: significantly longer [F(1,18)=65.71; p<0.001]; also recorded: that of the CSF-injected group did not significantly change | effect in Morris Swimming Maze ([8]; AF102B 1 mg./kg., physostigmine 0.1 mg./kg.): counteracted; also recorded: reverses memory impairments in AF64A-treated rats; also recorded: definitely improved the memory deficits induced by AF64A; also recorded: significant decrease in escape latency | effective dose, Morris Swimming Maze ([8]; AF64A rats): 1 mg/kg | effect in 8-Arm Radial Maze [9]: counteracted; also recorded: reverses memory impairments in AF64A-treated rats; also recorded: improves AF64A-induced memory impairments; also recorded: significant (p<0.001, F=17.5) decrease in the mean number of errors; also recorded: improved performance only when rats were previously injected icv with AF64A; also recorded: memory impairment could be reversed | effective dose, 8-Arm Radial Maze [9]: 5 mg/kg | tremor-inducing dose [10]: 60 to 80 mg/kg | tremor-inducing dose ([11]; ip): > 78 mg/kg | tremor-inducing dose ([11]; po): > 100 mg/kg | Mortality (mice, 64 mg./kg. per os): 0/5 | Mortality (mice, 71 mg./kg. per os): 0/5 | Mortality (mice, 80 mg./kg. per os): 2/5 | Mortality (mice, 90 mg./kg. per os): 2/5 | Mortality (mice, 101 mg./kg. per os): 3/5 | Mortality (mice, 113 mg./kg. per os): 4/5 | absorption by the enteric route (mice, inferred from i.v./oral LD50 ratio): efficient, rapid and apparently unaltered absorption | LD50 (95% C.I.) (mice, oral): 92(74-116) mg./kg. | Signs in reaction to treatment (mouse, in vivo): slightly enhanced intensity | effects considered characteristic of parasympatho- or cholinomimetic activity (mouse, in vivo): none of the test animals exhibited effects considered characteristic of parasympatho- or cholinomimetic activity | Mortality ([12]; 31 mg./kg. i.v.): 3/6 | Mortality ([12]; 33 mg./kg. i.v.): 1/6 | Mortality ([12]; 35 mg./kg. i.v.): 5/6 | Mortality ([12]; 37 mg./kg. i.v.): 6/6 | Mortality ([12]; 39 mg./kg. i.v.): 6/6 | LD50 (95% C.I.) ([12]; intravenous): 33(31-35) mg./kg. | principal signs of reaction to treatment [13]: spastic and tonic convulsions, tremors, tachypnoea and dyspnoea, decreased motor activity, slight to very strong salivation and urination | deaths ([13]; 20.0-187.0 mg./kg.): deaths occurred at the three highest dose levels (61, 107, 187 mg./kg.), within twenty minutes after dosing | slope ([13]; acute toxicity curve): 83 ° | LD50 ([13]; 20160 min): 78 mg/kg | EC50 [14]: 4 µM | LD50 [15]: 92 mg/kg | LD50 [16]: 33 mg/kg | LD50 at 336 h ([17]; LD50 (95% C.L.), rats): 77.6 mg/kg | LD50 at 336 h ([17]; LD50, rats): 77.6 mg/kg | cholinomimetic manifestation ([18]; AF102B at 80 mg./kg. p.o. and 60 mg./kg. i.p., oxotremorine 3.2 mg./kg. p.o. or 1.2 mg./kg. i.p.): Slight diarrhea was the single cholinomimetic manifestation | dose level for hypothermia inducing activity ([18]; i.p.): > 15 mg/kg | dose level for hypothermia inducing activity ([18]; p.o.): greater than 40 mg./kg. | inhibition of growth ([19]; 1000 ug. per plate): No inhibition of growth | mutagenic activity (reversion to prototrophy) ([19]; five strains, presence or absence of S-9 mix): No increases in reversion to prototrophy; also recorded: devoid of mutagenic activity; also recorded: not mutagenic up to high concentrations

CN1CCN(CC(=O)N2c3ccccc3C(=O)Nc3cccnc32)CC1 [PNZ, pirenzepine]
minimum effective dose producing impaired passive avoidance learning [20]: 0.1 ug/mouse, icv | dose required to reduce the effect of oxotremorine by 50%, tremor [21]: 5.8 ug/mouse, icv | dose required to reduce the effect of oxotremorine by 50%, antinociception [22]: 4.6 ug/mouse, icv
